Results from patent EP4650362A1, “NEUROPROTECTIVE PSD-95 POLYPEPTIDE INHIBITOR AND USE THEREOF” (Beijing Tuo Jie Biopharmaceutical Co. Ltd., priority 2023, dated 2024).
“And” between values parts separate entries of the source, which are not always exact repeats. Identical values can stand only once. Like-named read-outs stand apart in the source and are kept apart here. Non-standard residues stand in square brackets, D forms with d. Residues, ends and D or L forms follow the SMILES beside them. No end group written: not given here. Tle = CC(C)(C)[C@H](N)C(=O)O; Dab = NCC[C@H](N)C(=O)O; Aib = CC(C)(N)C(=O)O

Tests used:
human PSD95-PDZ3 = molecular target: T1, human PSD95-PDZ3 (Homo sapiens, UniProt P78352); test: binding ELISA with Biotin-PDZ3
T1 construct: PDZ3 (309-401, Flag-His-Avitag-TEVsite tag); made in house
T1 sequence (P78352 309-401): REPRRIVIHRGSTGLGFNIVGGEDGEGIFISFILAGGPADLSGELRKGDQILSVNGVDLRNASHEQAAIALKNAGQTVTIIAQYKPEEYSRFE
From the text: The three PDZ domains in the PSD95 protein are structurally similar. Binding to the PDZ1 and PDZ2 domains can effectively block PSD95-mediated neuroexcitotoxicity. However, the biological function of binding to the PDZ3 domain is unclear. Therefore, to avoid potential safety concerns, this test example assessed the selectivity of polypeptide compounds for the PDZ2 and PDZ3 domains, aiming to identify polypeptide compounds that specifically bind to the PDZ2 domain. The expression and purification of PSD95-PDZ3 protein were carried out with reference to the steps in 3.1.2. The amino acid sequence of PDZ3 protein: […] Site-specifically biotinylated Biotin-PDZ2 and Biotin-PDZ3 proteins were used for binding ELISA assays. […] After the blocking was complete, the blocking solution was discarded, and the plate was washed three times with PBST buffer. […] After the incubation was complete, the reaction solutions in the microplate were discarded, and the plate was washed three times with PBST. 100 μL of HRP-SA secondary antibody (diluted at 1:2000) was added to each well, and the plate was incubated at 37 °C for 1 h. After the plate was washed three times with PBST, 100 μL of TMB chromogenic substrate was added. […] The absorbance at 450 nm was measured using a SpectraMax M5 microplate reader, and the binding EC50 values of the test compounds to Biotin-PDZ2 or Biotin-PDZ3 were calculated using GraphPad Prism 9. […] The abilities of polypeptide compounds to bind to human PSD95-PDZ2 and human PSD95-PDZ3

human PSD95-PDZ2 = molecular target: T2, human PSD95-PDZ2 (Homo sapiens, UniProt P78352); test: competitive ELISA, affinity for human PSD95-PDZ2; format: binding
T2 construct: PDZ2 (155-249, the Flag-His-Avitag-TEVsite tag is italicized); made in house; host or cells: E. coli BL21-DE3 (PET vector)
From the text: The objective of this test example was to determine the affinities of polypeptide compounds for human PSD95-PDZ2 using competitive ELISAs.
The amino acid sequence of PDZ2 protein was designed using human PSD95 (Uniprot Entry: P78352) as a template for PDZ: PDZ2 (155-249, the Flag-His-Avitag-TEVsite tag is italicized and was subsequently used for purification and biotinylation): […]
[…] (SEQ ID NO. 62). The PDZ2 gene was constructed onto a PET expression vector, and induced expression was performed using BL21-DE3 E. coli cells under conditions of 37 °C and 1 mM IPTG 4 h. Then centrifugation was performed at 10,000 g at 4 °C for 10 min, and the cell pellets were collected, resuspended in 1× PBS solution, and then lysed using a homogenizer. The lysate was centrifuged at high speed, and the supernatant was collected and filtered through a 0.45 µm membrane. A Ni-Sepharose affinity column was equilibrated with 5 column volumes of a 20 mM phosphate buffer (pH 8.0). The sample was centrifuged at high speed to remove impurities and loaded onto the column for binding. The column was rinsed with the 20 mM phosphate buffer until the A280 reading dropped to the baseline. Gradient elution was then performed with the 20 mM phosphate buffer and 0-500 mM imidazole. A protein was collected, and whether it was the target protein was determined. The purified sample described above was buffer-exchanged into 1× PBS solution, and the resulting solution was concentrated to a volume of 2 mL and further purified using a Superdex200 gel chromatography column (GE) equilibrated with 1× PBS. The target peak was collected and aliquoted for later use.
PSD95-PDZ2 (the tag was removed by TEV enzyme) was diluted with 1× PBS buffer to 1 µg/mL, added to a 96-well microplate (Corning, 9018, 25/box 96-well clear flat bottom plate) at 100 µL/well, and left to stand overnight at 4 °C for 16-20 h. After the liquid was discarded, the plate was washed three times with PBST (pH 7.4, 0.05% Tween-20) buffer, and a 4% BSA blocking solution diluted with PBST buffer was then added (300 µL/well). The plate was blocked by incubation in an incubator at 37 °C for 1 h. After the blocking was complete, the blocking solution was discarded, and the plate was washed three times with PBST buffer. Biotin-NA-1, at a constant concentration of 0.3 µM, and the test compounds, having a starting concentration of 100 µM and serially diluted ten-fold with PBS buffer to seven concentrations (100, 10, 1, 0.1, 0.01, 0.001, 0.0001, and 0 µM), were then added, and the plate was incubated in an incubator at 37 °C for 1 h. After the incubation was complete, the reaction solutions in the microplate were discarded, and the plate was washed three times with PBST. 100 µL of HRP-SA secondary antibody (diluted at 1:2000) was added to each well, and the plate was incubated at 37 °C for 1 h. After the plate was washed three times with PBST, 100 µL of TMB chromogenic substrate was added. The plate was incubated at room temperature for 1-3 min, and 100 µL of 1 M sulfuric acid was added to stop the reaction.
The absorbance at 450 nm was measured using a SpectraMax M5 microplate reader, and non-linear fitting was performed using GraphPad Prism 9 to calculate the binding IC50 values of the test compounds to PSD95-PDZ2 protein.

[1] = plasma stability test with alteplase added, rat plasma; format: in vitro ADME; conditions: Rat plasma + rt-PA (50 µg/mL alteplase), 25 µM
Method: Solution preparation: An appropriate amount of a test polypeptide compound was weighed out and dissolved in an appropriate amount of 1× PBS to form a 1 mM test solution. NA-1 and NoNO42 were used as positive drugs, propantheline bromide was used as a human plasma test control, and lovastatin was used as a rat plasma test control. Plasma stability test: 12.5 µL of the 1 mM test solution was added to a 495 µL pre-incubated plasma sample. […] For each incubation time, two parallel samples were set. Subsequently, 200 µL of stop solution was added to stop the incubation, and the mixtures were vortexed for 5 min. Then the mixtures were centrifuged at 10,000 rpm at 4 °C for 10 min to remove the protein in the sample, and 70 µL of the supernatant was transferred to a new 96-well plate (70 µL of water was added to each well beforehand) and well mixed. Plasma stability test with alteplase added: An appropriate amount of solid alteplase was weighed out, and an appropriate volume of water was added. The mixture was vortexed to dissolve alteplase, forming a 1 mg/mL solution of alteplase. 250 µL of the 1 mg/mL solution of alteplase was added to 4750 µL of plasma to form a plasma sample containing 50 µg/mL alteplase. The other procedures were the same as in the aforementioned "plasma stability test", with the difference being that the plasma sample containing 50 µg/mL alteplase was used instead of plasma. […] Sample pretreatment: […] LC-MS analysis: […] (2) Mass-spectrometric conditions: The mass spectrometry analysis used an electrospray ionization (ESI) source, a positive ion analysis mode, and a multi-reaction monitoring (MRM) scan mode. […] The plasma stability of the polypeptide compound

[2] = competitive ELISA against 0.3 µM Biotin-NA-1, error of this test within three times, read-out: IC50

Compound | EC50 (human PSD95-PDZ3) | IC50 (human PSD95-PDZ2) | EC50 (human PSD95-PDZ3; plate coated with 2 µM test compound, Biotin-PDZ3 titrated, read-out: EC50 (PDZ3)) | IC50 (human PSD95-PDZ2; [2]) | Relative remaining compound content (%) ([1]; 0min (standard 100%)) | Relative remaining compound content (%) ([1]; 10min) | Relative remaining compound content (%) ([1]; 20min) | Relative remaining compound content (%) ([1]; 30min) | Relative remaining compound content (%) ([1]; 60min) | Relative remaining compound content (%) ([1]; 120min)
CC[C@H](C)[C@H](NC(=O)[C@H](CO)NC(=O)[C@H](CO)NC(=O)[C@H](CC(C)C)NC(=O)[C@@H](CCCCN)NC(=O)[C@H](CCCNC(=N)N)NC(=O)[C@H](CCCNC(=N)N)NC(=O)[C@@H](CCCNC(=N)N)NC(=O)[C@H](CCC(N)=O)NC(=O)[C@@H](CCCNC(=N)N)NC(=O)[C@H](CCCNC(=N)N)NC(=O)[C@H](CCCCN)NC(=O)[C@H](CCCCN)NC(=O)[C@@H](CCCNC(=N)N)NC(=O)CNC(=O)[C@@H](N)Cc1ccc(O)cc1)C(=O)N[C@@H](CCC(=O)O)C(=O)N[C@@H](CO)C(=O)N[C@@H](CC(=O)O)C(=O)N[C@H](C(=O)O)C(C)C [NoNO42, YGrKKRrQrRRkLSSIESDV, reference compound] (H-YG[dR]KKR[dR]Q[dR]RR[dK]LSSIESDV-OH) | > 1000 µM | 0.917 µM |  |  |  |  |  |  |  | 
CC(C)[C@H](NC(=O)[C@H](CC(=O)O)NC(=O)[C@@H](NC(=O)[C@@H](NC(=O)[C@@H](NC(=O)[C@@H](NC(=O)[C@H](CCN)NC(=O)C(C)(C)NC(=O)CNC(=O)[C@@H](CCCNC(=N)N)NC(=O)[C@@H](CCCNC(=N)N)NC(=O)[C@@H](CCCNC(=N)N)NC(=O)[C@@H](CCC(N)=O)NC(=O)[C@@H](CCCNC(=N)N)NC(=O)[C@@H](CCCNC(=N)N)NC(=O)[C@@H](CCCCN)NC(=O)[C@@H](CCCCN)NC(=O)[C@@H](CCCNC(=N)N)NC(=O)CNC(=O)[C@H](N)Cc1ccc(O)cc1)[C@@H](C)O)C(C)(C)C)C(C)(C)C)[C@@H](C)O)C(=O)O [Polypeptide compound 14, y-G-r-k-k-r-r-q-r-r-r-G-Aib-Dab-T-Tle-Tle-T-D-V] (H-[dY]G[dR][dK][dK][dR][dR][dQ][dR][dR][dR]G[Aib][Dab]T[Tle][Tle]TDV-OH) |  |  | > 1000 µM | 0.713 µM | 100.0% | 95.6% | 90.4% | 104.9% | 105.4% | 96.7%
CC(C)[C@H](NC(=O)[C@H](CC(=O)O)NC(=O)[C@@H](NC(=O)[C@@H](NC(=O)[C@@H](NC(=O)[C@@H](NC(=O)[C@H](CCN)NC(=O)C(C)(C)NC(=O)CNC(=O)[C@@H](CCCNC(=N)N)NC(=O)[C@H](CCCNC(=N)N)NC(=O)[C@H](CCCNC(=N)N)NC(=O)[C@H](CCC(N)=O)NC(=O)[C@@H](CCCNC(=N)N)NC(=O)[C@H](CCCNC(=N)N)NC(=O)[C@H](CCCCN)NC(=O)[C@H](CCCCN)NC(=O)[C@H](N)CCCNC(=N)N)[C@@H](C)O)C(C)(C)C)C(C)(C)C)[C@@H](C)O)C(=O)O [Polypeptide compound 22, r-K-K-R-r-Q-R-R-r-G-Aib-Dab-T-Tle-Tle-T-D-V] (H-[dR]KKR[dR]QRR[dR]G[Aib][Dab]T[Tle][Tle]TDV-OH) |  |  |  | 0.881 µM | 100.0% | 83.4% | 72.2% | 48.2% | 13.7% | 8.1%
YGRKKRRQRRRKLSSIESDV [NA-1, YGRKKRRQR RRKLSSIESDV, reference compound] | > 1000 µM | 0.909 µM |  |  | 100.0% | 6.3% and 14.0% | 2.2% | 0.8% |  | 
